Source: patent US20220204953A1, “Mutant of Acid Phosphatase and Application Thereof” (priority 2021, published 2022)
Substitutions are numbered along the chain they refer to.

What was measured:
Assay type in all cases: biochemical
Settings in all cases: 30° C., pH 5.0, sodium pyrophosphate, 1-1,000 mM
[1] = target: T1, Pseudomonas aeruginosa acid phosphatase PaAPase, wild type (WT), SEQ ID NO: 1 (Pseudomonas aeruginosa, UniProt A0A0D6FFE3); experiment: Determination of kinetic parameters (phosphorylation of L-ascorbic acid to L-ascorbate-2-phosphate), wild type
T1 construct: 217 aa form
Protocol: (§1) The activities of PaAPase and mutants thereof were determined with high-performance liquid chromatography. 500 μL of a substrate solution (500 mM L-ascorbic acid and 500 mM sodium pyrophosphate) (pH 5.0) and 5 μL of the enzyme liquid react at 30° C. for 30 min, and 95 μL of 42% phosphoric acid was added to terminate the reaction, where an activity unit was defined as the amount of enzyme required for producing 1 μmol of L-ascorbate-2-phosphate within 1 min (Table 3).
(§2) The kinetic parameters, including Vmax, Km and kcat, were calculated by measuring the generation rates of initial products of L-ascorbic acid and L-ascorbate-2-phosphate (1-1,000 mM) at different concentrations at 30° C. and under other conditions consistent with those of the determination of specific enzyme activity.

[2] = target: T2, Pseudomonas aeruginosa acid phosphatase PaAPase variant PaAPaseMu1 (D135R), SEQ ID NO: 19 (Pseudomonas aeruginosa, UniProt A0A0D6FFE3, D159R); experiment: Determination of kinetic parameters (phosphorylation of L-ascorbic acid to L-ascorbate-2-phosphate), Mu1
T2 construct: 217 aa form
T2 sequence (A0A0D6FFE3 25-241 D159R): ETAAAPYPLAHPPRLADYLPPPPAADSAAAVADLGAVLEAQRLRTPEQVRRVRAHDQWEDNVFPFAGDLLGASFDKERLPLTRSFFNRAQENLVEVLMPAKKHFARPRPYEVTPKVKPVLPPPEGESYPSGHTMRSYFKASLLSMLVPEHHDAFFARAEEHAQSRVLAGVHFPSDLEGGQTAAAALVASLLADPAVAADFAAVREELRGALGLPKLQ
Protocol: as §1, §2

[3] = target: T3, Pseudomonas aeruginosa acid phosphatase PaAPase variant PaAPaseMu2 (W58P/D135R), SEQ ID NO: 21 (Pseudomonas aeruginosa, UniProt A0A0D6FFE3, D159R/W82P); experiment: Determination of kinetic parameters (phosphorylation of L-ascorbic acid to L-ascorbate-2-phosphate), Mu2
T3 construct: 217 aa form
T3 sequence (A0A0D6FFE3 25-241 W82P/D159R): T2 sequence (A0A0D6FFE3 25-241 D159R) with W58P
Protocol: as §1, §2

[4] = target: T4, Pseudomonas aeruginosa acid phosphatase PaAPase variant PaAPaseMu3 (Q57H/W58P/D135R), SEQ ID NO: 22 (Pseudomonas aeruginosa, UniProt A0A0D6FFE3, D159R/Q81H/W82P)
T4 construct: 217 aa form
T4 sequence (A0A0D6FFE3 25-241 Q81H/W82P/D159R): T2 sequence (A0A0D6FFE3 25-241 D159R) with Q57H, W58P

T1 sequence (A0A0D6FFE3 entry or part of it): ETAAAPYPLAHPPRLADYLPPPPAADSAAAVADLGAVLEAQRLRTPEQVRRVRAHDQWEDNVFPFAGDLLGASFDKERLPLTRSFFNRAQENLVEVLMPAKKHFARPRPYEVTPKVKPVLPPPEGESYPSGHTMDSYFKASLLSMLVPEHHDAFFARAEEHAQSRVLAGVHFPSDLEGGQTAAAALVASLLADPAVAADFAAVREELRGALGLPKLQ

`O=C1O[C@H]([C@@H](O)CO)C(O)=C1O` [L-ascorbic acid] gave a kcat [1] of 16.3 s⁻¹, a kcat/Km [1] of 56.3 M⁻¹ s⁻¹ and a kcat [2] of 18.7 s⁻¹. It also gave a kcat/Km [2] of 76.3 M⁻¹ s⁻¹, a kcat [3] of 19.2 s⁻¹ and a kcat/Km [3] of 86.2 M⁻¹ s⁻¹. For the same compound, the kcat [4] was 20.1 s⁻¹ and the kcat/Km [4] was 95.3 M⁻¹ s⁻¹.
